Test results published in US4853463A, “Amino acid derivatives” (Kissei Pharmaceutical Co., Ltd., priority 1985, dated 1989).

Tests used:
human renin [1] = target: T1, human renin (Homo sapiens, UniProt P00797); assay: Human renin-sheep renin substrate reaction system in vitro; type: biochemical; conditions: purified human renin, semipurified sheep renin substrate, pH 7.4, 37° C., 15 minutes
T1 sequence (P00797 67-406): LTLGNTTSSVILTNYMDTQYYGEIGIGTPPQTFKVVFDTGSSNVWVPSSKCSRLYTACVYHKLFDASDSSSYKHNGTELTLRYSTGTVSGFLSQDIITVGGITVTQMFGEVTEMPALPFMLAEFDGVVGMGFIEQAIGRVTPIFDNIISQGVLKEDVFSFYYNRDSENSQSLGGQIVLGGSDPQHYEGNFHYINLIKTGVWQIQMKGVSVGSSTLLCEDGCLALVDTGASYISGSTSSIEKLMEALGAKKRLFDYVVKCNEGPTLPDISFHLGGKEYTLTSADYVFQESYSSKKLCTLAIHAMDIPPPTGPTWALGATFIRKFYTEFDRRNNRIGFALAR
Procedure: Human renin-sheep renin substrate reaction system in vitro
To a mixture containing 200 μl of a 125 mM pyrophosphate buffer (pH 7.4), 25 μl of a 20 mM aqueous solution of L-phenylalanyl-L-alanyl-L-prolin as an angiotensin converting enzyme inhibitor, 50 μl of semipurified sheep renin substrate (2000 ng angiotensin I/ml), 50 μl of dimethyl sulfoxide solution of an amino acid derivative of the present invention or 50 μl of dimethyl sulfoxide as a control and 150 μl of deionized water was added 25 μl of purified human renin (20-30 ng angiotensin I/ml/hr). The mixture was incubated for 15 minutes on a water bath at 37° C., and the reaction mixture was allowed to stand for 5 minutes on a water bath at 100° C. to stop the reaction. After cooling, 200 μl of the solution were taken out and the amount of angiotensin I produced by the addition of renin was determined by radioimmunoassay. The inhibitory effect was calculated by the following equation. [formula]
The molar concentration which produced a 50% inhibition (IC50) was calculated from the inhibition value obtained, and the results are shown below. [drawing 19]

human renin [2] = target: T1, human renin; assay: Renin inhibitory effect in a human high renin plasma; type: biochemical; set-up: human high renin plasma; from tissue; host or cells: human high renin plasma; conditions: phosphate buffer pH 7.0, 37° C., 60 minutes
Procedure: Renin inhibitory effect in a human high renin plasma
The mixture consisted of 500 μl of human high renin plasma, 50 μl of 20 mM L-phenylalanyl-L-alanyl-L-prolin, an angiotensin converting enzyme inhibitor, 350 μl of 0.5 M phosphate buffer (pH 7.0) containing 14 mM EDTA·2Na and 0.3% neomycin and 100 μl of appropriate concentration of amino acid compound of the present invention dissolved in DMSO or DMSO as a control. A 200 μl sample was taken out from the solution, and was cooled at 4° C. in an ice bath. The remaining sample (800 μl) was incubated for 60 minutes at 37° C. in a water bath. A 200 μl of sample was taken out from the incubated mixture, and chilled immediately in an ice bath. The amount of angiotensin I produced in both samples was determined by radioimmunoassay, and the net amount was estimated as a difference between the samples incubated at 37° C. and the sample cooled at 4° C.
The inhibitory effect was calculated by the following equation: [formula]
The molar concentration which produced 50% inhibition (IC50) was calculated from the inhibition value obtained, and the results are shown below. [drawing 32]

[3] = Hypotensive effect in marmoset; type: in vivo, common marmoset; conditions: 30 mg/kg oral, furosemide-treated high renin marmoset, Control 84.3 mmHg
Procedure: Hypotensive effect in marmoset
The experiment was carried out by using common marmoset as described in K. G. Hofbauer et al., Clinical and Experimental hypertension, Vol. A5, Nos. 7 & 8 (1983), pages 1237-1247.
Furosemide was orally administered three times to common marmoset at 15 mg per kilogram per day every other day to create a high renin state. Blood pressure of conscious marmoset was measured 3 days after the last administration of furosemide.
Measurement of blood pressure
A conscious male marmoset weighing 360 g was binded on a monkey chair, and tailarterial pressure was recorded on a pretismograph. The amino acid compound of the present invention, administred orally using a catheter.
(a) Compound: Isopropyl (2RS, 3S)-3-{N-[2-(1-naphthylmethyl)-3-(morpholinocarbonyl)propionyl]-L-alanyl}amino-2-hydroxy-5-methylhexanoate

human renin [4] = target: T1, human renin; set-up: human high renin plasma; from tissue; host or cells: human high renin plasma; conditions: reported at 1986 meetings; cited from earlier work

SMILES | IC50 (human renin [1]) [µM] | IC50 (human renin [2]) [µM] | other results
CC(C)C[C@H](NC(=O)[C@H](C)NC(=O)C(CC(=O)N1CCOCC1)Cc1cccc2ccccc12)C(O)C(=O)OC(C)C (mixture of isomers) [No. 1, Isopropyl (2RS, 3S)-3-{N-[2-(1-naphthylmethyl)-3-(morpholinocarbonyl)propionyl]-L-alanyl}amino-2-hydroxy-5-methylhexanoate] | 0.026 | 0.02 | Blood pressure ([3]; 1 hour after administration): 75.8 mmHg; Blood pressure ([3]; 2 hours after administration): 70.0 mmHg; Blood pressure ([3]; 3 hours after administration): 70.0 mmHg; Blood pressure ([3]; 5 hours after administration): 70.0 mmHg; Blood pressure ([3]; 7 hours after administration): 72.6 mmHg
CC(C)C[C@H](NC(=O)CCNC(=O)C(CC(=O)N1CCOCC1)Cc1cccc2ccccc12)C(O)C(=O)OC(C)C (stereo partly drawn) [compound 10] | 0.13 | 0.046 | 
CC(C)C[C@H](NC(=O)[C@H](Cc1ccccc1)NC(=O)C(CC(=O)N1CCOCC1)Cc1cccc2ccccc12)C(O)C(=O)OC(C)C (stereo partly drawn) [compound 6] | 0.048 | 0.14 | 
COC(=O)C(O)C(CC(C)C)NC(=O)[C@H](Cc1c[nH]cn1)NC(=O)C(CC(=O)NCCc1ccccc1)Cc1cccc2ccccc12 (stereo partly drawn) |  |  | Human renin inhibitory activity (human renin [4]): human renin inhibitory activity
CC(C)C[C@H](NC(=O)CNC(=O)C(CC(=O)N1CCOCC1)Cc1cccc2ccccc12)C(O)C(=O)OC(C)C (stereo partly drawn) [compound 9] | 0.39 | 0.2 | 
CC(C)C[C@H](NC(=O)[C@@H](NC(=O)C(CC(=O)N1CCOCC1)Cc1cccc2ccccc12)C(C)C)C(O)C(=O)OC(C)C (stereo partly drawn) [compound 5] | 0.0066 | 0.0033 | 

The remaining compounds from weak to strong by IC50 (human renin [1]), led by results:

IC50 (human renin [1]) [µM] | IC50 (human renin [2]) [µM] | SMILES | other results
0.29 | 0.51 | CC(C)C[C@H](NC(=O)[C@H](Cc1c[nH]c2ccccc12)NC(=O)C(CC(=O)N1CCOCC1)Cc1cccc2ccccc12)C(O)C(=O)OC(C)C (stereo partly drawn) [compound 7] | 
0.08 | 0.061 | CC(C)CCNC(=O)C[C@H](O)[C@H](CC(C)C)NC(=O)[C@H](CC(C)C)NC(=O)C(CC(=O)N1CCOCC1)Cc1cccc2ccccc12 (stereo partly drawn) [No. 4, N-[2-(1-Naphthylmethyl)-3-(morpholinocarbonyl)-propionyl]-L-leucyl-statiyl isoamylamide] | 
0.059 | 0.044 | COC(=O)[C@@H]1CCCN1C(=O)CC(Cc1cccc2ccccc12)C(=O)N[C@@H](C)C(=O)N[C@@H](CC(C)C)C(O)C(=O)OC(C)C (stereo partly drawn) [compound 11] | 
0.03 | 0.011 | COC(=O)C(O)[C@H](CC(C)C)NC(=O)[C@H](CC(C)C)NC(=O)C(CC(=O)N1CCOCC1)Cc1cccc2ccccc12 (mixture of isomers) [No. 3, Methyl (2RS, 3S)-3-{N-[2-(1-naphthylmethyl)-3-(morpholinocarbonyl)propionyl]-L-leucyl}amino-2-hydroxy-5-methylhexanoate] | 
0.026 | 0.0072 | CC(C)C[C@H](NC(=O)[C@H](CO)NC(=O)C(CC(=O)N1CCOCC1)Cc1cccc2ccccc12)C(O)C(=O)OC(C)C (stereo partly drawn) [compound 8] | 
0.015 | 0.013 | COC(=O)CN(C)C(=O)CC(Cc1cccc2ccccc12)C(=O)N[C@@H](C)C(=O)N[C@@H](CC(C)C)C(O)C(=O)OC(C)C (stereo partly drawn) [compound 12] | 
0.014 | 0.016 | CC(C)C[C@H](NC(=O)C(CC(=O)N1CCOCC1)Cc1cccc2ccccc12)C(=O)N[C@@H](CC(C)C)C(O)C(=O)OC(C)C (stereo partly drawn) [compound 2] | 
